The text below walks through data of publication PMC12051620, “Molecular basis underlying the specificity of an antagonist AA92593 for mammalian melanopsins” (The Journal of Biological Chemistry, 2025).

The experiment has as its target T1, belcheri melanopsin WT (Branchiostoma belcheri, UniProt Q4R1I4).
T1 construct: expressed in transfected cells; host or cells: COS-1
Kind of experiment: GsX GloSensor assay with Gsα/q11. It is filed as cell-based. The following applies: 16.7 μM AA92593, COS-1 cells. From the text:
Non-mammalian-type melanopsins were successfully converted into AA92593-susceptible types by introducing Phe-94^2.61/Ser-188^ECL2/Ser-269^6.52 or Phe-207^5.42 (Fig. 6). We attempted to extend the functional conversion targets to invertebrate melanopsin (see Fig. S2). […] We assessed the susceptibility of belcheri and lanceolatum melanopsins to AA92593 using the GsX GloSensor assay with Gsα/q11. In the absence of AA92593, the belcheri melanopsin produced smaller light-dependent cAMP responses than the other melanopsins assessed in this study (Fig. 7A), whereas the lanceolatum melanopsin produced robust cAMP responses upon light illumination (Fig. 7B). […] On the other hand, responses by the lanceolatum melanopsin were insensitive to the antagonist (Fig. 7B), similar to non-mammalian-type melanopsins (Fig. 6, A and D). […]
For GloSensor assay, opsins, GloSensor assay sensor (coded by pGlo-22F), and NanoBiT-tagged G proteins were transiently expressed in COS-1 cells (kindly provided from Dr David Farrens, Oregon Health and Science University) using PEI as described previously ([24], [52]). […] For GFP-fluorescence microscopy, a 35-mm cell culture dish (IWAKI) was transfected with 2 μg melanopsin-GFP plasmid and 8 μg PEI in 400 μl Opti-mem and 1.2 ml D-MEM. […]

T1 sequence (Q4R1I4 1-410 limits assumed): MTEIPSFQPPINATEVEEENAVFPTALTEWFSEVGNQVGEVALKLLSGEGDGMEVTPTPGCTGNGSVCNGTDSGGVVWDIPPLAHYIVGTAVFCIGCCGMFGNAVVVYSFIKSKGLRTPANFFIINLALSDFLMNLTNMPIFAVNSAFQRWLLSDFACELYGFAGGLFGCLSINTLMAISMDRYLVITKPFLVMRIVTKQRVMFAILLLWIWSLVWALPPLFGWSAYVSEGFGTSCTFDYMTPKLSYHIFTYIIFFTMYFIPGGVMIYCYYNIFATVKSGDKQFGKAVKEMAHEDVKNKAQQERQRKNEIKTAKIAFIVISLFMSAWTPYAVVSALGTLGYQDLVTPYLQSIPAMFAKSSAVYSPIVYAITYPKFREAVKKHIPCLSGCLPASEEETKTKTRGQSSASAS

With `COc1ccc(S(=O)(=O)N2CCCCC2)cc1C` [AA92593], the “reduction of light-induced cellular responses by the addition of AA92593” value was approximately 34%.
